Measured values published in patent publication US11000033B2, “Ketone or oxime compound, and herbicide” (NISSAN CHEMICAL CORPORATION, priority 2014, dated 2021).

Columns and labels:
Format in all cases: in vivo
[1] = test system: Echinochloa oryzacola Vasing.; test: Test Example 2: herbicidal activity, application during weed generation in submerged conditions (symbol A); conditions: Table 23; application herbicide amount 320 g/ha; grade 0-5 by criteria of Test Example 1
In short: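 Scoring of herbicidal effect took place 3 weeks after treatment, using the criteria of the earlier test. Treatment was water-surface application of diluted emulsifiable compound at a set dose. Plants were at one- to two-leaf stage in submerged alluvial soil (4 cm depth), greenhouse 25-30° C.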

[2] = test system: directly sowed rice plant; test: Test Example 3: effect on crop by foliage application, Wagner pot (symbol b); conditions: application herbicide amount 320 g/ha
In short: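 Plants are raised from seed in flooded paddy conditions: water stands 0.1–0.5 cm over alluvial soil, and the pot is kept in a greenhouse at 25–30 °C. Species sown are barnyardgrass (E. crus-galli var. crus-galli), Leptochloa chinensis, Cyperus difformis and rice.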

Digitaria ciliaris = test: Test Example 4: herbicidal effect by soil treatment (symbol F); conditions: application herbicide amount 320 g/ha
In short: (§1)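 Seeds were sown in sterilized diluvial soil, covered with about 1.5 cm of soil, and the soil surface was sprayed with a water-diluted emulsion of the compound at a predetermined rate. Plants grew in a greenhouse at 25° C. to 30° C.; effects were scored visually 3 weeks after application.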

Alopecurus myosuroides [3] = test: Test Example 4: herbicidal effect by soil treatment (symbol J); conditions: application herbicide amount 320 g/ha
In short: as §1

Lolium multiflorum Lam. [4] = test: Test Example 4: herbicidal effect by soil treatment (symbol K); conditions: application herbicide amount 320 g/ha
In short: as §1

Stellaria media = test: Test Example 4: herbicidal effect by soil treatment (symbol P); conditions: application herbicide amount 320 g/ha
In short: as §1

corn = test: Test Example 4: effect on crop by soil treatment (symbol c); conditions: application herbicide amount 320 g/ha
In short: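 Grown at 25° C. to 30° C. in a greenhouse, the crops came from seed sown spot-wise in sterilized diluvial soil under roughly 1.5 cm of covering soil.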

rice = test: Test Example 4: effect on crop by soil treatment (symbol b); conditions: application herbicide amount 320 g/ha
In short: (§2)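 Greenhouse culture at 25° C. to 30° C. followed sowing of seed in spots on sterilized diluvial soil with a soil cover close to 1.5 cm thick.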

wheat [5] = test: Test Example 4: effect on crop by soil treatment (symbol e); conditions: application herbicide amount 320 g/ha
In short: as §2

beet = test: Test Example 4: effect on crop by soil treatment (symbol f); conditions: application herbicide amount 320 g/ha
In short: as §2

rapeseed = test: Test Example 4: effect on crop by soil treatment (symbol g); conditions: application herbicide amount 320 g/ha
In short: as §2

Alopecurus myosuroides [6] = test: Test Example 5: herbicidal effect by foliage application, plastic box (symbol J); conditions: 320 g/ha, 3 weeks after application
In short: (§3)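 Effect is rated 3 weeks after a foliar spray of water-diluted emulsion concentrate at a predetermined herbicide amount. Plants had grown 14 days in a 25° C. to 30° C. greenhouse from seed in sterilized diluvial soil.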

Lolium multiflorum Lam. [7] = test: Test Example 5: herbicidal effect by foliage application, plastic box (symbol K); conditions: 320 g/ha, 3 weeks after application
In short: as §3

rice plant = test: Test Example 5: effect on crop by foliage application, plastic box (symbol b); conditions: 320 g/ha, 3 weeks after application
In short: (§4)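 Greenhouse test at 25° C. to 30° C. Seeds of crops and weeds were spot-sown in boxes of sterilized diluvial soil under roughly 1.5 cm soil cover, then grown for foliage treatment.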

wheat [8] = test: Test Example 5: effect on crop by foliage application, plastic box (symbol e); conditions: 320 g/ha, 3 weeks after application
In short: as §4

| SMILES | Herbicidal effect grade, A: Echinochloa oryzacola Vasing. [1] | effect on crop b (directly sowed rice plant), grade 0-5 [2] | Herbicidal effect grade, F: Digitaria ciliaris (Digitaria ciliaris) | Herbicidal effect grade, J: Alopecurus myosuroides (Alopecurus myosuroides [3]) | Herbicidal effect grade, K: Lolium multiflorum Lam. (Lolium multiflorum Lam. [4]) | Herbicidal effect grade, P: Stellaria media (Stellaria media) | Effect on crop grade, c: corn (corn) | Effect on crop grade, b: directly sowed rice plant (rice) | Effect on crop grade, e: wheat (wheat [5]) | Effect on crop grade, f: beet (beet) | Effect on crop grade, g: rapeseed (rapeseed) | J: Alopecurus myosuroides, herbicidal effect (criteria of Test Example 1) (Alopecurus myosuroides [6]) | K: Lolium multiflorum Lam., herbicidal effect (criteria of Test Example 1) (Lolium multiflorum Lam. [7]) | b: directly sowed rice plant, effect on crop (criteria of Test Example 1) (rice plant) | e: wheat, effect on crop (criteria of Test Example 1) (wheat [8]) | F (Digitaria ciliaris) herbicidal effect grade (Digitaria ciliaris) | J (Alopecurus myosuroides) herbicidal effect grade (Alopecurus myosuroides [3]) | K (Lolium multiflorum Lam.) herbicidal effect grade (Lolium multiflorum Lam. [4]) | P (Stellaria media) herbicidal effect grade (Stellaria media) | c (corn) effect on crop grade (corn) | further results |
| --- | --- | --- | --- | --- | --- | --- | --- | --- | --- | --- | --- | --- | --- | --- | --- | --- | --- | --- | --- | --- | --- |
| CC(=O)CC1CC(O)=C(c2c(C)cc(-n3cccn3)cc2C)C1=O (stereo not drawn) [7-024] | 1 (Herbicidal ratio of 5% or higher and lower than 20%) | 3 (Herbicidal ratio of 40% or higher and lower than 70%) | 4 (Herbicidal ratio of 70% or higher and lower than 90%) | 0 (Herbicidal ratio of 5% or lower (almost no effect)) | 0 (Herbicidal ratio of 5% or lower (almost no effect)) | 0 (Herbicidal ratio of 5% or lower (almost no effect)) | 0 (Herbicidal ratio of 5% or lower (almost no effect)) | 5 (Herbicidal ratio of 90% or more (almost completely withered)) | 0 (Herbicidal ratio of 5% or lower (almost no effect)) | 0 (Herbicidal ratio of 5% or lower (almost no effect)) | 0 (Herbicidal ratio of 5% or lower (almost no effect)) | 2 (Herbicidal ratio of 20% or higher and lower than 40%) | 3 (Herbicidal ratio of 40% or higher and lower than 70%) | 3 (Herbicidal ratio of 40% or higher and lower than 70%) | 0 (Herbicidal ratio of 5% or lower (almost no effect)) |  |  |  |  |  |  |
| CON=C(C)CC1CC(O)=C(c2c(C)cc(C)cc2SC)C1=O (stereo not drawn) [6-075] | 1 (Herbicidal ratio of 5% or higher and lower than 20%) | 4 (Herbicidal ratio of 70% or higher and lower than 90%) |  |  |  |  |  |  |  |  |  | 5 (Herbicidal ratio of 90% or more (almost completely withered)) | 5 (Herbicidal ratio of 90% or more (almost completely withered)) | 4 (Herbicidal ratio of 70% or higher and lower than 90%) | 2 (Herbicidal ratio of 20% or higher and lower than 40%) |  |  |  |  |  | F: Digitaria ciliaris, herbicidal effect grade (Digitaria ciliaris): 0 (Herbicidal ratio of 5% or lower (almost no effect)); J: Alopecurus myosuroides, herbicidal effect grade (Alopecurus myosuroides [3]): 4 (Herbicidal ratio of 70% or higher and lower than 90%); K: Lolium multiflorum Lam., herbicidal effect grade (Lolium multiflorum Lam. [4]): 4 (Herbicidal ratio of 70% or higher and lower than 90%); P: Stellaria media, herbicidal effect grade (Stellaria media): 0 (Herbicidal ratio of 5% or lower (almost no effect)); c: corn, effect on crop grade (corn): 0 (Herbicidal ratio of 5% or lower (almost no effect)); b: directly sowed rice plant, effect on crop grade (rice): 0 (Herbicidal ratio of 5% or lower (almost no effect)); e: wheat, effect on crop grade (wheat [5]): 0 (Herbicidal ratio of 5% or lower (almost no effect)); f: beet, effect on crop grade (beet): 0 (Herbicidal ratio of 5% or lower (almost no effect)); g: rapeseed, effect on crop grade (rapeseed): 0 (Herbicidal ratio of 5% or lower (almost no effect)) |
| COC(=O)CON=C(C)CC1CC(O)=C(c2c(C)cc(C)cc2C)C1=O (stereo not drawn) [1-023] | 4 (Herbicidal ratio of 70% or higher and lower than 90%) | 4 (Herbicidal ratio of 70% or higher and lower than 90%) |  |  |  |  |  |  |  |  |  |  |  |  |  | 4 (Herbicidal ratio of 70% or higher and lower than 90%) | 0 (Herbicidal ratio of 5% or lower (almost no effect)) | 3 (Herbicidal ratio of 40% or higher and lower than 70%) | 0 (Herbicidal ratio of 5% or lower (almost no effect)) | 0 (Herbicidal ratio of 5% or lower (almost no effect)) | b (directly sowed rice plant) effect on crop grade (rice): 5 (Herbicidal ratio of 90% or more (almost completely withered)); e (wheat) effect on crop grade (wheat [5]): 0 (Herbicidal ratio of 5% or lower (almost no effect)); f (beet) effect on crop grade (beet): 0 (Herbicidal ratio of 5% or lower (almost no effect)); g (rapeseed) effect on crop grade (rapeseed): 0 (Herbicidal ratio of 5% or lower (almost no effect)); J: Alopecurus myosuroides, herbicidal effect grade (Alopecurus myosuroides [6]): 4 (Herbicidal ratio of 70% or higher and lower than 90%); K: Lolium multiflorum Lam., herbicidal effect grade (Lolium multiflorum Lam. [7]): 4 (Herbicidal ratio of 70% or higher and lower than 90%); b: directly sowed rice plant, effect on crop grade (rice plant): 4 (Herbicidal ratio of 70% or higher and lower than 90%); e: wheat, effect on crop grade (wheat [8]): 0 (Herbicidal ratio of 5% or lower (almost no effect)) |
| CON=C(C)C(C(C)=NOC)C1CC(O)=C(c2c(C)cc(C)cc2C)C1=O (stereo not drawn) [1-021] | 0 (Herbicidal ratio of 5% or lower (almost no effect)) | 0 (Herbicidal ratio of 5% or lower (almost no effect)) |  |  |  |  |  |  |  |  |  |  |  |  |  | 0 (Herbicidal ratio of 5% or lower (almost no effect)) | 0 (Herbicidal ratio of 5% or lower (almost no effect)) | 2 (Herbicidal ratio of 20% or higher and lower than 40%) | 0 (Herbicidal ratio of 5% or lower (almost no effect)) | 0 (Herbicidal ratio of 5% or lower (almost no effect)) | b (directly sowed rice plant) effect on crop grade (rice): 2 (Herbicidal ratio of 20% or higher and lower than 40%); e (wheat) effect on crop grade (wheat [5]): 0 (Herbicidal ratio of 5% or lower (almost no effect)); f (beet) effect on crop grade (beet): 0 (Herbicidal ratio of 5% or lower (almost no effect)); g (rapeseed) effect on crop grade (rapeseed): 0 (Herbicidal ratio of 5% or lower (almost no effect)); J: Alopecurus myosuroides, herbicidal effect grade (Alopecurus myosuroides [6]): 3 (Herbicidal ratio of 40% or higher and lower than 70%); K: Lolium multiflorum Lam., herbicidal effect grade (Lolium multiflorum Lam. [7]): 4 (Herbicidal ratio of 70% or higher and lower than 90%); b: directly sowed rice plant, effect on crop grade (rice plant): 3 (Herbicidal ratio of 40% or higher and lower than 70%); e: wheat, effect on crop grade (wheat [8]): 0 (Herbicidal ratio of 5% or lower (almost no effect)) |
| CON=C(C)CC1CC(O)=C(c2c(C)cc(-c3ccc(Cl)cc3Cl)cc2C)C1=O (stereo not drawn) [6-088] | 4 (Herbicidal ratio of 70% or higher and lower than 90%) | 5 (Herbicidal ratio of 90% or more (almost completely withered)) | 5 (Herbicidal ratio of 90% or more (almost completely withered)) | 5 (Herbicidal ratio of 90% or more (almost completely withered)) | 5 (Herbicidal ratio of 90% or more (almost completely withered)) | 5 (Herbicidal ratio of 90% or more (almost completely withered)) | 0 (Herbicidal ratio of 5% or lower (almost no effect)) | 0 (Herbicidal ratio of 5% or lower (almost no effect)) | 0 (Herbicidal ratio of 5% or lower (almost no effect)) | 0 (Herbicidal ratio of 5% or lower (almost no effect)) | 3 (Herbicidal ratio of 40% or higher and lower than 70%) | 5 (Herbicidal ratio of 90% or more (almost completely withered)) | 5 (Herbicidal ratio of 90% or more (almost completely withered)) | 5 (Herbicidal ratio of 90% or more (almost completely withered)) | 4 (Herbicidal ratio of 70% or higher and lower than 90%) |  |  |  |  |  |  |
